Data set [1] has as its system Trypanosoma brucei brucei bloodstream forms (strain 427). In words: In vitro antitrypanosomal activity on Tbb BSF. In kind it is cell-based. The protocol:
Antiparasitic activities were evaluated in vitro on Trypanosoma brucei brucei bloodstream forms (strain 427) (Tbb BSF). Tbb BSF were cultured in vitro at 37° C. with 5% CO2 in HMI9 medium containing 10% heat-inactivated fetal bovine serum, […] ([…]) and L-cysteine ([…]).
In vitro tests were performed as previously described by Hoet S. et al. (Planta Med., 2004, 70, 407-413, doi:10.1055/s-2004-818967). Suramine (a commercial anti-trypanosomal drug) and camptothecin were used as positive controls. Stock solutions of compounds to be tested were prepared at a concentration of 10 mg/mL in DMSO. The solutions were further diluted in medium (described in 1.1) to give 0.1 mg/mL stock solutions. Extracts and compounds were tested in eight serial three-fold dilutions (final concentration range: 50-0.02 mg/L) in 96-well microliter plates. All tests were performed at least in duplicate.

Data set [2] is described as follows: In vivo acute toxicity test (highest tolerated dose). Set-up: species or system NMRI mice. The note with it: for acute toxicity: intraperitoneally every 2 hours, 10-15-25-50 mg/kg, monitored 48 h. The text has this:
(§1) NMRI mice (6-8 weeks of age) obtained from Envigo Laboratories (The Netherlands) were used. All in vivo experiments performed were approved by the Ethical Committee for animals use at the Health Sciences Sector of the Catholic University of Louvain (2017/UCL/MD/017).
The assessment of the highest tolerated dose was based on a DNDi protocol by Loset J.-R. et al. (V. Drug Screening for Kinetoplastids Diseases. A Training Manual for Screening in Neglected Diseases-DNDi, 2009) and adapted by Beaufay C. et al. (Malar J., 2017, 16, doi:10.1186/s12936-017-2054-y). Briefly, 3-O-cis/trans-p-coumaroyltormentic acid isolated from fractions F-F9 obtained from a callus of Malus domestica Cox cultivar of example 1 above was given intraperitoneally every 2 hours to 2 mice using increasing doses: 10-15-25-50 mg/kg from stock solutions of 10 mg/mL. Mice were controlled for any health problem symptoms or behavioral changes and monitored for weight and hematocrit after each injection and every day during 48 h after administration. Main organs (heart, liver, spleen, lung and kidney) of treated mice were observed and weighed wet during autopsy. Control group received the vehicle, distilled water with 10% of tween 80-ethanol (7:3). The total injected dose was finally recorded and will ensure the non-toxicity of in vivo anti-trypanosomal test.

Data set [3] concerns Human normal fibroblast cell line (WI-38). Put plainly: cells. In kind it is cell-based. The note with it: cytotoxicity, WI-38 human fibroblasts, Table 3. As for the experimental part:
The cytotoxicity of tested compounds was evaluated in parallel on a Human normal fibroblast cell line (WI-38) cultivated in a humidified atmosphere with 5% CO2 at 37° C. Human normal fibroblast cell line (WI-38) was cultivated in DMEM medium (Life Technologies) containing 4 mM L-glutamine, 1 mM sodium pyruvate supplemented with 10% fetal bovine serum (Sigma) and penicillin-streptomycin (100 UI/mL).
Suramine (a commercial anti-trypanosomal drug) and camptothecin were used as positive controls. Stock solutions of compounds to be tested were prepared at a concentration of 10 mg/mL in DMSO. The solutions were further diluted in medium (described in 1.1) to give 0.1 mg/mL stock solutions. Extracts and compounds were tested in eight serial three-fold dilutions (final concentration range: 50-0.02 mg/L) in 96-well microliter plates. All tests were performed at least in duplicate.

For data set [4], the system named is Trypanosoma brucei brucei. Put plainly: In vivo anti-trypanosomal activity in infected mice. Set-up: species or system NMRI mice. The following applies: for survival of infected mice in comparison to the untreated group: 50 mg/kg/d i.p. day 3-7 post-infection, followed to day 19; for parasitemia: day 4 post-infection, 50 mg/kg/day intraperitoneally, 10^4 Tbb/mouse; for survival increase: day 12 post-infection, 50 mg/kg i.p. day 3-7.
Text: as §1
Mice were randomly divided into 6 mice per group for 3-O-cis/trans-p-coumaroyltormentic acid (mixture of cis and trans) and ursolic acid, 4 for positive control (Suramine) and 7 for the negative control, and were infested intraperitoneally with 10^4 Trypanosoma brucei brucei. All compounds were solubilized in the vehicle (water-tween 80-ethanol) and administered intraperitoneally. 3-O-cis/trans-p-coumaroyltormentic acid or ursolic acid (UA) were administered at 50 mg/kg at day 3 after infection with the parasite and then every day until day 7 post-infection. Suramine (0.5 mg/kg) was administered while vehicle was used as a negative control. From day 3 post infection, a drop of blood collected each day from mouse-tail was used to count parasitemia.

Data set [5] deals with Trypanosoma brucei brucei. The following applies: review Isah et al. 2016; cited from earlier work.
The test system of the next data set is MCR-5 cells. The following applies: cited from earlier work.
In another data set the test system is Trypanosoma cruzi. The following applies: review Isah et al. 2016; cited from earlier work.

Read-outs that look alike come from different tables or passages of the source.

For “3β-trans/cis-p-coumaroyl-2α,19α-dihydroxy-urs-12-en-28-oic acid [3-O-cis/trans-p-coumaroyltormentic acid]”, the “Tbb (IC50 μg/mL)” value in data set [1] (Tbb bloodstream forms strain 427, Table 3) is 0.48 ± 0.36 µg/mL. Besides, the IC50 in data set [1] (Tbb bloodstream forms strain 427, Table 3, read-out: Tbb (IC50 μM)) came out at 0.75 ± 0.57 µM; in data set [3] (read-out: WI38 (IC50 μM)), 44.8 ± 1.25 µM. Also, in data set [1] (in vitro, versus tormentic acid), the “anti-trypanosomal activity, times higher than that of tormentic acid” value worked out at 10 times. Also, the “total cumulative highest tolerated dose” value in data set [2] (mice, intraperitoneal, repeated injections) was 100 mg/kg. In addition, the acute toxicity entry in data set [2] (mice) is recorded as “no acute toxic symptom”; in data set [2] (mice, listed as 3-O-p-coumaroyl ester of tormentic acid), “no acute toxicity”. The “WI38 (IC50 μg/mL)” value in data set [3] amounted to 28.43 ± 0.79 µg/mL. In addition, the “survival of infected mice in comparison to the untreated group” value in data set [4] (listed as 3-O-p-coumaroyl ester of tormentic acid) is recorded as “significant increase”; in data set [4] (listed as esters), “significantly improved”. The parasitemia result in data set [4] is given as “significant decrease”. For the same compound, the survival increase in data set [4] worked out at 33.3%.

For the compound `C[C@H]1[C@H](C)CC[C@]2(C(=O)O)CC[C@]3(C)C(=CC[C@@H]4[C@@]5(C)CC[C@H](O)C(C)(C)[C@@H]5CC[C@]43C)[C@H]12` [Ursolic acid], the IC50 in data set [1] (Trypanosoma brucei, Tbb bloodstream forms strain 427, Table 3, read-out: Tbb (IC50 μM)) worked out at 2.38 ± 0.24 µM; in data set [1] (Trypanosoma brucei, Tbb bloodstream forms strain 427, Table 3, read-out: Tbb (IC50 μg/mL)) it was 1.08 ± 0.11 µg/mL; in data set [3] (read-out: WI38 (IC50 μM)) it was 11.1 ± 0.22 µM; in data set [3] (read-out: WI38 (IC50 μg/mL)), 5.08 ± 0.1 µg/mL. In data set [1] (cytotoxicity in WI38 compared to Tbb), the “SI (Selectivity Index)” value came to 4.8. In addition, the “total cumulative highest tolerated dose” value in data set [2] (NMRI, mouse, in vivo, ip, 48 h) came out at 100 mg/kg. The acute toxicity entry in data set [2] (mice) was “no acute toxic symptom”. Further, the “survival of infected mice in comparison to the untreated group” value in data set [4] is on record as “no significant difference”. In addition, the parasitemia entry in data set [4] is “did not show any effect”. The survival increase in data set [4] was 16.7%.

As for tingenin, the “IC50 against Trypanosoma brucei brucei” value in data set [5] is < 0.25 µg/mL. Besides, the “cytotoxicity IC50 on MCR-5 cells” value in the data set with MCR-5 cells is 0.45 µg/mL. Also, the “IC50 against Trypanosoma cruzi” value in the data set with Trypanosoma cruzi was < 0.25 µg/mL.

(Values after patent US12605351B2, “Method for producing a composition comprising a 3-O-p-coumaroyl ester of tormentic acid from a plant cell culture, applications thereof as antiparasitic agent for the treatment of trypanosomiasis” (LUXEMBOURG INSTITUTE OF SCIENCE AND TECHNOLOGY, priority 2019, dated 2026).)
